Like-named read-outs stand apart in the source and are kept apart here.
How the values were obtained:
[1] = target: PI3 kinase alpha (Homo sapiens, UniProt P42336); assay: PI3K ATP depletion assay (Biological Method 1, Assay 3; KinaseGlo luminescence); format: biochemical; details: ATP depletion assay, read-out: PI3 Kinase Alpha, IC50
Protocol: The PI3 kinase alpha IC50 values shown in Table 1 were determined according to the ATP depletion assay as disclosed herein in Biological Method 1.
Assay 3: ATP Depletion Assay
Compounds to be tested are dissolved in DMSO and directly distributed into a black 384-well plate at 1.25 μL per well. To start the reaction, 25 μL of 10 nM PI3 kinase and 5 μg/mL 1-alpha-phosphatidylinositol (PI) are added into each well followed by 25 μL of 2 μM ATP. The reaction is performed until approx 50% of the ATP is depleted, and then stopped by the addition of 25 μL of KinaseGlo solution purchased from Promega. The stopped reaction is incubated for 5 minutes and the remaining ATP is then detected via luminescence.

[2] = test system: A2780 ovarian cancer cells; assay: Cellular proliferation in A2780 cells, Cell Titer Glo (Biological Method 4); format: cell-based; details: Homo sapiens
Protocol: In addition, many of the compounds of Table 1 were tested to determine their inhibitory activity in a cellular proliferation assay according to Biological Method 4.
The ability of the compounds of the invention to inhibit cellular proliferation were determined by using Cell Titer Glo, a commercially available assay from Promega Corporation. A2780 ovarian cancer cells were seeded in TC treated 96-well plates at a density of 1,000 per well in DMEM, 10% FBS, 1% Sodium Pyruvate, and 1% Penicillin Streptomycin for a minimum of 2 hrs prior to addition of compound. For each concentration of test compound, 2 μl (500×) aliquots of compound or 100% DMSO diluted in 500 μl of culture medium for 2× concentration then diluted 1× on the Cells. Cells were incubated for 72 hrs at 37° C., 5% CO2. After the 72 hour incubation, Cell Titer Glo reagent is added to determine number of viable cells remaining after exposure to the compound, and the EC50 value was calculated. The assay was performed according to the manufacturer's instruction (Promega Corporation, Madison, Wis. USA). Each experimental condition was performed in duplicate.

[3] = ovarian cancer cell line A2780, Biological Method 4

Sequence of PI3 kinase alpha (P42336 whole entry): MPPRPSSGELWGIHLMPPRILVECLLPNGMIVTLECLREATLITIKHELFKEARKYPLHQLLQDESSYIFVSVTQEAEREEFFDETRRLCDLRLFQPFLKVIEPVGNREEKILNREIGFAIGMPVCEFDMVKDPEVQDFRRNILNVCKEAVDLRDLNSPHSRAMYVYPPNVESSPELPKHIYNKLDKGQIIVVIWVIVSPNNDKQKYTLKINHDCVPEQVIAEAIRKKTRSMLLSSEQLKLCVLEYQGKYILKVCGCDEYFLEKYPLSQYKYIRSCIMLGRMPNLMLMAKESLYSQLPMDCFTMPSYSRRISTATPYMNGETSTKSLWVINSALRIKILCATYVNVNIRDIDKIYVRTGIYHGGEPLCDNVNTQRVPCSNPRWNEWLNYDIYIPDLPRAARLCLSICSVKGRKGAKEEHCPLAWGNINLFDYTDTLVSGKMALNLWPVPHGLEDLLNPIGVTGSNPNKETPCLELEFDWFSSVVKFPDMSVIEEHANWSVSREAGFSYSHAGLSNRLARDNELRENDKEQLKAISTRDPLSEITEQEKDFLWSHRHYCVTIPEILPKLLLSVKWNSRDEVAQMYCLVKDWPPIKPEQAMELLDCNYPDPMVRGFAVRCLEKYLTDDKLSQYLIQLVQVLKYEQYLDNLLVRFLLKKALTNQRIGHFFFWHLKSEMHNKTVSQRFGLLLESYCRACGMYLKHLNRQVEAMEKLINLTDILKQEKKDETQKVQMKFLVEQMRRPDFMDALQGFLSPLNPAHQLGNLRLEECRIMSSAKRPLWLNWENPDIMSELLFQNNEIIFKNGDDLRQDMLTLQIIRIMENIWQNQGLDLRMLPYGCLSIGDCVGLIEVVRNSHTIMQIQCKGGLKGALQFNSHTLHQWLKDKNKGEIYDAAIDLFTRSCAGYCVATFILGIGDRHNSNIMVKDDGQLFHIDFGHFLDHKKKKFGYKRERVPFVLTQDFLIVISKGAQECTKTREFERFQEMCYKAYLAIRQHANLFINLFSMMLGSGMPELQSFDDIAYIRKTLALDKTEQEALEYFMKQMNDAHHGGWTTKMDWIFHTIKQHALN
Sequence of PI3 kinase alpha (P27986 whole entry partner): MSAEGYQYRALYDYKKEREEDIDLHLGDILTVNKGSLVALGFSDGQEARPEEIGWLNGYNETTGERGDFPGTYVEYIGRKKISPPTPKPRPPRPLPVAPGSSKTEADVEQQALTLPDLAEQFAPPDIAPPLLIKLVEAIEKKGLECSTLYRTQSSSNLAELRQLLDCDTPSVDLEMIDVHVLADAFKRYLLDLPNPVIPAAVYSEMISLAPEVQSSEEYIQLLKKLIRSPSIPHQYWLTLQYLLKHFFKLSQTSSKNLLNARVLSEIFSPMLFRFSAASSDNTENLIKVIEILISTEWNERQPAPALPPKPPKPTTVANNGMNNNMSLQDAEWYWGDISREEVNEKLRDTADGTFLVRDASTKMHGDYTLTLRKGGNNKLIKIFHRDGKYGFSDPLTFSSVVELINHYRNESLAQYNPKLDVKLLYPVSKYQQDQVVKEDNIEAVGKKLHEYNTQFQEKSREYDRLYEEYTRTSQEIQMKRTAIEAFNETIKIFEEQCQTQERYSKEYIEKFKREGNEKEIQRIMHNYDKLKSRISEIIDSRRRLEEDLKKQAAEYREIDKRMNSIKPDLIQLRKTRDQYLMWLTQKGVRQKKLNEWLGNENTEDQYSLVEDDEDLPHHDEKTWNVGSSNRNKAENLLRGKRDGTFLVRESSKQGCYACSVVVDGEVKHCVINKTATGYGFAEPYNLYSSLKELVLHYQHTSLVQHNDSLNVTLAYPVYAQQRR

| IC50 [1] [µM] | EC50 ([2]; ovarian cancer cell line A2780) [µM] | IC50 ([1]; Biological Method 1) [µM] | EC50 [2, 3] [µM] | SMILES |
| --- | --- | --- | --- | --- |
| < 1 | < 10 |  |  | CC(=O)N1CCC[C@H](Oc2cc(-c3cnc(N)nc3N)nc(N3CCOCC3)n2)C1 [Compound 529] |
| < 1 | < 10 |  |  | COC(=O)N1CC[C@@H](Oc2cc(-c3cnc(N)cc3C(F)(F)F)nc(N3CCOCC3)n2)C1 [Compound 539] |
| < 1 | < 10 |  |  | COc1cncc(-c2nc(N3CCOCC3)nc(-c3cnc(N)nc3)c2C)c1 [Compound 475] |
| < 1 | < 10 |  |  | Nc1ccc(-c2cc(Nc3ccccc3F)nc(N3CCOCC3)n2)cn1 [Compound 440] |
| < 1 | < 10 |  |  | CC(C)N1CCN(c2ccc(Nc3cc(-c4ccc(N)nc4)nc(N4CCOCC4)n3)cn2)CC1 [Compound 509] |
| < 1 | < 10 |  |  | N#Cc1ccccc1Nc1cc(-c2cnc(N)nc2)nc(N2CCOCC2)n1 [Compound 449] |
| < 1 | < 25 |  |  | Nc1cc(C(F)(F)F)c(-c2cc(Nc3ccc4c(c3)OCCO4)nc(N3CCOCC3)n2)cn1 [Compound 446] |
| < 1 | < 1 |  |  | Cc1c(Nc2ccc3c(c2)OCCO3)nc(N2CCOCC2)nc1-c1cnc(N)nc1 [Compound 481] |
| < 1 | < 25 |  |  | Nc1ncc(-c2cc(Nc3cnc4ccc(OC(F)(F)F)cc4c3)nc(N3CCOCC3)n2)cn1 [Compound 495] |
| < 1 | < 10 |  |  | CS(=O)(=O)N1CC[C@@H](Oc2cc(-c3cnc(N)cc3C(F)(F)F)nc(N3CCOCC3)n2)C1 [Compound 540] |
| < 1 | < 25 |  |  | CC(C)(C)NS(=O)(=O)c1ccccc1-c1cc(-c2cnc(N)cc2C(F)(F)F)nc(N2CCOCC2)n1 [Compound 544] |
| < 1 | < 10 |  |  | CC(C)C(=O)N1CCC(Oc2cc(-c3cnc(N)cc3C(F)(F)F)nc(N3CCOCC3)n2)CC1 [Compound 458] |
| < 1 | < 25 |  |  | Cc1nc(N)ncc1-c1ccnc(N2CCOCC2)n1 [Compound 478] |
| < 1 | < 10 |  |  | CN(C)c1ccc(-c2cc(-c3ccc(N)nc3)nc(N3CCOCC3)n2)cn1 [Compound 505] |
| < 1 | < 10 |  |  | CS(=O)(=O)N1CCC(Oc2cc(-c3cnc(N)cc3C(F)(F)F)nc(N3CCOCC3)n2)CC1 [Compound 461] |
| < 1 | < 10 |  |  | Nc1cc(C(F)(F)F)c(-c2cc(Nc3cnc4ccc(OCCN5CCCC5)cc4c3)nc(N3CCOCC3)n2)cn1 [Compound 489] |
| < 1 | < 10 |  |  | N#Cc1ccccc1Nc1cc(-c2ccc(N)nc2)nc(N2CCOCC2)n1 [Compound 441] |
| < 1 | < 10 |  |  | Nc1cc(C(F)(F)F)c(-c2cc(O[C@H]3CCN(C(=O)c4ccccc4)C3)nc(N3CCOCC3)n2)cn1 [Compound 532] |
| < 1 | < 10 |  |  | Nc1ccc(-c2cc(Nc3ccc(NCCN4CCCC4)nc3)nc(N3CCOCC3)n2)cn1 [Compound 497] |

Continued, compound first:

| SMILES | IC50 [1] [µM] | EC50 ([2]; ovarian cancer cell line A2780) [µM] | IC50 ([1]; Biological Method 1) [µM] | EC50 [2, 3] [µM] |
| --- | --- | --- | --- | --- |
| Nc1cc(C(F)(F)F)c(-c2cc(O[C@H]3CCOC3)nc(N3CCOCC3)n2)cn1 [Compound 26] | < 1 | < 10 |  |  |
| N#Cc1cc(-c2ccc(N)nc2)nc(N2CCOCC2)n1 [Compound 415] | < 1 | < 25 |  |  |
| N#Cc1ccc(Nc2cc(-c3cnc(N)cc3C(F)(F)F)nc(N3CCOCC3)n2)cc1 [Compound 283] |  |  | < 1 | < 10 |
| Nc1ncc(-c2cc(C(=O)Nc3cccnc3)nc(N3CCOCC3)n2)cn1 [Compound 231] |  |  | < 1 | < 10 |
| CN1CCN(S(=O)(=O)c2cccc(Nc3cc(-c4cnc(N)cc4C(F)(F)F)nc(N4CCOCC4)n3)c2)CC1 [Compound 315] |  |  | < 1 | < 10 |
| Nc1cc(C(F)(F)F)c(-c2cc(N3CCC(=O)CC3)nc(N3CCOCC3)n2)cn1 [Compound 324] |  |  | < 1 | < 10 |
| Nc1ccc(-c2cc(Sc3ccccn3)nc(N3CCOCC3)n2)cn1 [Compound 295] |  |  | < 1 | < 10 |
| CCN(CC)C(=O)Cc1csc(Nc2cc(-c3cnc(N)cc3C(F)(F)F)nc(N3CCOCC3)n2)n1 [Compound 218] |  |  | < 1 | < 10 |
| Nc1cc(C(F)(F)F)c(-c2cc(-c3cncc(CN4CCCCC4)c3)nc(N3CCOCC3)n2)cn1 [Compound 263] |  |  | < 1 | < 10 |
| COc1ccccc1CCNc1cc(-c2ccc(N)nc2)nc(N2CCOCC2)n1 [Compound 304] |  |  | < 1 | < 25 |
| COc1ccc(CCNc2cc(-c3ccc(N)nc3)nc(N3CCOCC3)n2)cc1 [Compound 302] |  |  | < 10 | < 25 |
| Nc1cc(C(F)(F)F)c(-c2cc(N3CC[C@H](F)C3)nc(N3CCOCC3)n2)cn1 [Compound 332] |  |  | < 1 | < 1 |
| Nc1ccc(-c2cc(-n3ncc4cccc(N)c43)nc(N3CCOCC3)n2)cn1 [Compound 345] |  |  | < 1 | < 10 |
| NC(=O)c1ccnc(Nc2cc(-c3cnc(N)cc3C(F)(F)F)nc(N3CCOCC3)n2)c1 [Compound 242] |  |  | < 1 | < 10 |
| COc1cccc(CCNc2cc(-c3ccc(N)nc3)nc(N3CCOCC3)n2)c1 [Compound 303] |  |  | < 1 | < 10 |
| CN(C)C(=O)C1CN(c2cc(-c3cnc(N)cc3C(F)(F)F)nc(N3CCOCC3)n2)CCO1 (centres unmarked) [Compound 326] |  |  | < 1 | < 25 |
| CC(=O)N1CCC(Oc2cc(-c3cnc(N)cc3C(F)(F)F)nc(N3CCOCC3)n2)CC1 [Compound 19] | < 1 | < 1 |  |  |
| Nc1ccc(-c2cc(Nc3ccc4cn[nH]c4c3)nc(N3CCOCC3)n2)cn1 [Compound 227] |  |  | < 1 | < 10 |
| COc1ccccc1Nc1cc(-c2cnc(N)nc2)nc(N2CCOCC2)n1 [Compound 306] |  |  | < 1 | < 10 |
| CN(c1cc(-c2cnc(N)nc2)nc(N2CCOCC2)n1)C1CCOCC1 [Compound 6] | < 1 | < 10 |  |  |

| SMILES | IC50 [1] [µM] | EC50 ([2]; ovarian cancer cell line A2780) [µM] | IC50 ([1]; Biological Method 1) [µM] | EC50 [2, 3] [µM] |
| --- | --- | --- | --- | --- |
| CS(=O)(=O)c1cncc(-c2cc(-c3cnc(N)cc3C(F)(F)F)nc(N3CCOCC3)n2)c1 [Compound 266] |  |  | < 1 | < 10 |
| Nc1ncc(-c2cc(-c3cnc(N)nc3)nc(N3CCOCC3)n2)cn1 [Compound 279] |  |  | < 1 | < 10 |
| Nc1ccc(-c2cc(Nc3ccnc4cc(C(F)(F)F)ccc34)nc(N3CCOCC3)n2)cn1 [Compound 380] |  |  | < 1 | < 10 |
| Nc1cc(C(F)(F)F)c(-c2cc(N3CCOC(c4ccc(C(F)(F)F)cc4)C3)nc(N3CCOCC3)n2)cn1 (centres unmarked) [Compound 334] |  |  | < 1 | < 10 |
| Nc1cc(C(F)(F)F)c(-c2cc(NC3CCOCC3)nc(N3CCOCC3)n2)cn1 [Compound 322] |  |  | < 1 | < 25 |
| NC(=O)c1ccnc(Nc2cc(-c3ccc(N)nc3)nc(N3CCOCC3)n2)c1 [Compound 348] |  |  | < 1 | < 25 |
| CC(C)Oc1ccnc(Nc2cc(-c3cnc(N)cc3C(F)(F)F)nc(N3CCOCC3)n2)c1 [Compound 432] | < 1 | < 10 |  |  |
| Nc1ncc(-c2cc(N3CCNC(=O)C3)nc(N3CCOCC3)n2)cn1 [Compound 392] |  |  | < 1 | < 10 |
| Nc1ncc(-c2cc(N3CCCc4ccccc43)nc(N3CCOCC3)n2)cn1 [Compound 411] | < 1 | < 10 |  |  |
| CN(C)CCOc1ccc(-c2cc(-c3cnc(N)nc3)nc(N3CCOCC3)n2)cn1 [Compound 223] |  |  | < 1 | < 10 |
| N#Cc1cccc(Nc2cc(-c3cnc(N)nc3)nc(N3CCOCC3)n2)c1 [Compound 307] |  |  | < 1 | < 10 |
| COc1cccc(Nc2cc(-c3cnc(N)nc3)nc(N3CCOCC3)n2)c1 [Compound 308] |  |  | < 1 | < 10 |
| Nc1ccc(-c2cc(Nc3cc(F)ccc3F)nc(N3CCOCC3)n2)cn1 [Compound 436] | < 1 | < 10 |  |  |
| CC(=O)Nc1cccc(-c2cc(-c3ccc(N)nc3)nc(N3CCOCC3)n2)c1 [Compound 250] |  |  | < 1 | < 10 |
| Nc1ncc(-c2cc(Nc3ccccc3C(F)(F)F)nc(N3CCOCC3)n2)cn1 [Compound 393] |  |  | < 1 | < 10 |
| Nc1cc(C(F)(F)F)c(-c2cc(Nc3cccc(S(=O)(=O)N4CCOCC4)c3)nc(N3CCOCC3)n2)cn1 [Compound 316] |  |  | < 1 | < 10 |
| Nc1cc(C(F)(F)F)c(-c2cc(N3CCOC(c4ccc(F)cc4)C3)nc(N3CCOCC3)n2)cn1 (centres unmarked) [Compound 335] |  |  | < 1 | < 10 |
| COC(=O)c1cnc(N2CCOCC2)nc1-c1cnc(N)nc1 [Compound 431] | < 1 | < 25 |  |  |
| N#Cc1ccc(Nc2cc(-c3cnc(N)cc3C(F)(F)F)nc(N3CCOCC3)n2)cn1 [Compound 284] |  |  | < 1 | < 10 |
